Source: patent publication EP0059980A1, “Use of an antimicrobial preservative in ophtalmics and the care of contact lenses” (NATEC Institut für naturwissenschaftlich- technische …, priority 1981, dated 1982)
Converted amounts (≈) assume the structure as drawn. Read-outs that look alike come from different tables or passages of the source. Values belong to the compound of their own block, whether it stands above or below them.

Experiments:
[1] = Acute oral toxicity test; set-up: species or system Mäuse; details: mouse, in vivo, black mice, mean (range in brackets), read-out: oraler LD 50-Wert
Source text: Anhand des Laurinsäurecholinesterchlorids als Beispiel für die erfindungsgemäß verwendeten Laurinsäurecholinestersalze wurde ferner eine akute orale Toxizitätsprüfung durchgeführt, wobei schwarze Mäuse als Versuchstiere dienten. Dabei wurde gefunden, daß der orale LD 50-Wert im Mittel bei 3,15 (2,66 bis 3,74) g/kg Tiergewicht liegt.

[2] = test system: Kaninchenauge; assay: Ocular irritation test according to Draize (mucous membrane tolerance); assay type: in vivo, Kaninchen; details: 2.000 ppm in 0,9 % saline, 0,1 ml in conjunctival sac, eight rabbits
Procedure: (§1) Ferner wurde die Haut- und Schleimhautverträglichkeit von Laurinsäurecholinesterchlorid an Albino-Meerschweinchen aus einem leicht allergisierbaren Stamm (Pirlbright white) von 400 bis 700 g Gewicht und bei kleinwüchsigen Kaninchen von 1,5 bis 3 kg Gewicht geprüft. Die Tiere erhielten Standarddiät und Wasser nach Belieben. Die Raumtemperatur betrug etwa 20 °C, die Luftfeuchtigkeit etwa 50 %, die tägliche Belichtungsdauer 12 Stunden.
Die Prüfung auf Schleimhautverträglichkeit wurde am Kaninchenauge vorgenommen. Die Prüfsubstanz wurde als Lösung von 2.000 ppm Laurinsäurecholinesterchlorid in 0,9 %iger wäßriger Kochsalzlösung im okkulären Reizwirkungstest nach Draize an acht Kaninchen auf Schleimhautverträglichkeit in der folgenden Weise geprüft.
0,1 ml der Testlösung wurden im Konjunktivalsack eines Tierauges unter Schließung von Ober- und Unterlid eingebracht. Man ließ die Lösung eine Minute lang einwirken. Das andere Auge wurde zur Kontrolle in gleicher Weise mit destilliertem Wasser behandelt.
Eine Minute nach der Applikation wurden bei der Hälfte der Tiere die behandelten Augen eine Minute lang mit '10 bis 20 ml lauwarmer physiologischer Kochsalzlösung naChgespült..Die Augen wurden anschließend bei allen behandelten Tieren geprüft.

[3] = Hydrolytic stability of aqueous solution kept boiling; assay type: physicochemical; details: 5 % aqueous solution
Source text: Die erfindungsgemäß vorgeschlagenen Laurinsäurecholinestersalze besitzen auch die erforderliche Stabilität und Beständigkeit. So wurde eine 5 %ige wäßrige Laurinsäurecholinesterchloridlösung 8 Stunden am Sieden gehalten. Danach wurde eine nur unwesentliche Zunahme des Säuregehalts der Trockensubstanz von 2,5 auf 3,9 % festgestellt. Demnach kann unter den Bedingungen, unter denen die erfindungsgemäß vorgeschlagenen Wirkstoffe normaler; weise als Konservierungsmittel eingesetzt werden, eine hydrolytische Spaltung des Wirkstoffes praktisch ausgeschlossen werden.

[4] = test system: Pseudomonas fluorescens; assay: Minimal inhibitory concentration (MIC), turbidity method in peptone broth; assay type: cell-based; details: Pepton-Nährlösung, pH 7,0
Source text: (§2) Die antimikrobiellen Wirkungsspektren eines erfindungsgemäß vorgeschlagenen Wirkstoffes, nämlich des Laurinsäurecholinesterchlorids, und im Vergleich dazu von den homologen Essigsäure-, Capronsäure- und Palmitinsäurecholinesterchloriden sowie von den bekannten Konservierungsmitteln Adamantylcarbonsäurecholinesterchlorid und Chlor- 'hexidin-diacetat wurden durch Bestimmung der minimalen Hemmkonzentration nach der Trübungsmethode in Pepton-Nährlösung bei einem pH von 7,0 festgestellt. Diese Methode ist von K.H. Wallhäußer und H. Schmidt in "Sterilisation, Desinfektion, Konservierung, Chemotherapie", Stuttgart (1967), Seite 420-421 beschrieben. Die Ergebnisse sind in Tabelle 1 zusammengestellt.

[5] = test system: Paecilomyces variati; assay: as above; assay type: cell-based
Source text: as §2

[6] = test system: Staphylococcus aureus ATCC 25923; assay: as above; assay type: cell-based
Source text: as §2

[7] = test system: Aspergillus fumigatus; assay: as above; assay type: cell-based
Source text: as §2

[8] = test system: Paecilomyces Ehrlich; assay: as above; assay type: cell-based
Source text: as §2

[9] = test system: Fusorium oxysporum; assay: as above; assay type: cell-based
Source text: as §2

[10] = test system: Streptococcus pyogenes; assay: as above; assay type: cell-based
Source text: as §2

[11] = test system: Enterobacter aerogenes; assay: as above; assay type: cell-based; details: Klebsiella aerogenes
Source text: as §2

[12] = test system: Bacillus cereus ATCC 11778; assay: as above; assay type: cell-based
Source text: as §2

[13] = test system: Bacillus subtilis ATCC 6633; assay: as above; assay type: cell-based
Source text: as §2

[14] = test system: E. coli ATCC 11229; assay: as above; assay type: cell-based; details: Escherichia coli
Source text: as §2

[15] = test system: Staphylococcus epidermis ATCC 12228; assay: as above; assay type: cell-based
Source text: as §2

[16] = test system: Proteus vulgaris; assay: as above; assay type: cell-based
Source text: as §2

[17] = test system: Candida albicans ATCC 10231; assay: as above; assay type: cell-based
Source text: as §2

[18] = test system: Bakterien, Hefen und Schimmelpilze; assay: Preservative challenge test according to USP XIX; assay type: cell-based; details: 0,01 % in sterile aqueous solution; criteria of Wallhäußer for category I products, up to 28 days
Source text: Als Beispiel für die erfindungsgemäß vorgesehenen Konservierungsmittel wurde Laurinsäurecholinesterchlorid einem Konservierungsbelastungstest nach der Vorschrift USP XIX unterworfen und mit bekannten Konservierungsmitteln, die in Kontaktlinsen-Pflegelösungen eingesetzt werden und dem gleichen Test unterworfen wurden, verglichen.. Die USP XIX schreibt vor, daß bei einem entsprechenden Belastungstest, bei dem man von einer Ausgangskeimzahl von […] ausgeht, ein'e Verminderung der Keimzahl innerhalb von 14 Tagen um 99,9 % bei den zugesetzten Bakterien erreicht wird und daß sich die zugesetzten Pilzsporen und Hefen innerhalb der gleichen Zeit nicht signifikant vermehren.
Um die antimikrobielle Wirkung der verschiedenen untersuchten Konservierungsmittel besser vergleichen zu können, wurden die Belastungstest bei jeweils gleicher Wirkstoffkonzentration (0,01 % in steriler wäßriger Lösung) und bei gleicher Ausgangsbelastung des jeweils eingesetzten Stammes durchgeführt. In den Tabellen 2 bis 5 sind die Keimzahlen nach jeweils 2 und 10 Minuten sowie nach 1 Stunde, 2 und 24 Stunden angegeben, in den Tabellen 6 bis 9 sind die Ergebnisse nach 1 Tag, 7, 14, 21 und 28 Tagen festgehalten, da die Keimzahlen während der weiteren Laufzeit bis zum 28. Tag bei guter Konservierung nicht mehr ansteigen dürfen.
Wie aus der Monographie von K.H. Wallhäußer, Sterilisation, Desinfektion, Konservierung, 2. […]

[19] = test system: Albino-Meerschweinchen (Pirlbright white); assay: Direct skin irritation test, ointment applied daily for one week; assay type: in vivo; details: 200 ppm in Vaseline ointment base, 12 guinea pigs, daily for one week on shorn flank
Procedure: as §1
Die Prüfsubstanz wurde in einer Salbengrundlage aus Vaseline mit 200 ppm des Wirkstoffs auf direkte Hautreizung getestet. Bei 12 Meerschweinchen wurde die Präparation eine Woche lang täglich auf einem kurz geschorenen Bezirk an der Flanke aufgetragen und etwa 30 Sekunden eingerieben.

[20] = test system: Albino-Meerschweinchen (Pirlbright white); assay: Skin sensitisation test (induction and provocation phase); assay type: in vivo; details: 200 ppm in Vaseline; three weeks induction, 5 days pause, 3 days provocation; checked after 24 h, 2 and 3 days
Procedure: as §1
Daraufhin wurde bei den gleichen Tieren die lokale Anwendung der Prüfsubstanz auf drei Wochen ausgedehnt (Induktionsphase). Nach anschließender 5-tägiger Pause wurde die Prüfsubstanz an drei aufeinanderfolgenden Tagen auf einem nicht vorbehandelten kontralateralen kurzgeschorenen Kontrollbezirk eingerieben (Provokationsphase),.
Aufgrund dieser Versuche ergab sich kein Hinweis auf sensibilisierende Eigenschaften des Laurinsäurecholinesterchlorids.

[21] = Hydrolysis in presence of pancreatic juice under simulated physiological conditions
Procedure: (§3) Ferner wurde eine 1 %ige wäßrige Laurinsäurecholinesterchloridlösung in Gegenwart von Pankreassaft simulierten physiologischen Bedingungen (38°C) ausgesetzt und nach 1 Stunde und nach 24 Stunden Proben gezogen und auf entstandene freie Fettsäuren untersucht. Dazu wurden die Proben mit Petroläther extrahiert und im Extrakt ' die Fettsäuren mikroanalytisch bestimmt.

[22] = test system: Pseudomonas aeruginosa; assay: Minimal inhibitory concentration (MIC), turbidity method in peptone broth; assay type: cell-based; details: Pepton-Nährlösung, pH 7,0
Source text: as §2, with “Diese Methode ist von K.H. Wallhäußer und H. Schmidt in "Sterilisation, Desinfektion, Konservierung, Chemotherapie", Stuttgart (1967), Seite 420-421 beschrieben.” left out

[23] = test system: Ratten; assay: Subacute oral toxicity test; assay type: in vivo; details: rats, 20 and 50 mg per kg body weight
[24] = pancreatic juice
Procedure: as §3

[25] = Paecilomyces, pH 7, read-out: MIC-Werte
[26] = Staphylococcus aureus, ATCC25923, pH 7, read-out: MIC-Werte
[27] = ATCC11229, pH 7, read-out: MIC-Werte
[28] = Candida albicans, ATCC10231, pH 7, read-out: MIC-Werte
[29] = ATCC25923, Staphylococcus aureus ATCC 25923, Pepton-Nährlösung, pH 7,0, read-out: MIC-Werte
[30] = Pepton-Nährlösung, pH 7,0, read-out: MIC-Werte
[31] = Fusorium oxysporum, Pepton-Nährlösung, pH 7,0, read-out: MIC-Werte
[32] = ATCC11229, E. coli ATCC 11229, Pepton-Nährlösung, pH 7,0, read-out: MIC-Werte
[33] = ATCC10231, Candida albicans ATCC 10231, Pepton-Nährlösung, pH 7,0, read-out: MIC-Werte

Structure (SMILES): CCCCCCCCCCCC(=O)OCC[N+](C)(C)C [Laurinsäurecholinesterchlorid]
LD50 [1]: 3150 mg/kg
Reaktion im Sinne von Rötung, Schwellung, Sekretion oder Hornhautveränderung ([2]; 1 min): In keinem Falle kam es zu einer Reaktion
spontane Abwehrreaktionen [2]: keine spontanen Abwehrreaktionen
Säuregehalt der Trockensubstanz ([3]; after 8 hours boiling): 3,9%
Säuregehalt der Trockensubstanz ([3]; before boiling): 2,5%
MIC [4]: 2.5 µg/mL
MIC [5, 25]: 0.78 µg/mL
MIC [6, 26]: 2.5 µg/mL
MIC ([7]; pH 7, read-out: MIC-Werte): 10 µg/mL
MIC [8, 25]: 0.78 µg/mL
MIC ([9]; pH 7, read-out: MIC-Werte): 3.13 µg/mL
MIC ([10]; pH 7, read-out: MIC-Werte): 0.16 µg/mL
MIC ([11]; pH 7, read-out: MIC-Werte): 100 µg/mL
MIC ([12]; Bacillus cereus, ATCC11778, pH 7, read-out: MIC-Werte): 3.13 µg/mL
MIC ([13]; Bacillus subtilis, ATCC6633, pH 7, read-out: MIC-Werte): 0.78 µg/mL
MIC [14, 27]: 10 µg/mL
MIC ([15]; Staphylococcus, ATCC12228, pH 7, read-out: MIC-Werte): 0.78 µg/mL
MIC ([16]; pH 7, read-out: MIC-Werte): 200 µg/mL
MIC [17, 28]: 10 µg/mL
Bedingungen für ausreichende Konservierung (Abfall der Keimzahl) [18]: weit übertroffen
direkte Hautreizung (Hautreaktionen) [19]: keine Hautreakticnen
Reaktion im Kontrollbezirk (Sensibilisierung) [20]: in keinem Falle eine Reaktion
Hydrolyse im Kontrollversuch ohne Pankreassaft ([21]; control without pancreatic juice, 38°C): keine Hydrolyse
metabolised at 1 h ([21]; pancreatic juice): 1.5%
metabolised at 24 h ([21]; pancreatic juice): 2.5%
MIC [22]: 20 µg/mL
Wirkungen bei subakuter oraler Toxizitätsprüfung [23]: keine Wirkungen

MIC ([5]; Paecilomyces variati, Pepton-Nährlösung, pH 7,0, read-out: MIC-Werte): 1.56 µg/mL (≈ 3.09 µM)
MIC [6, 29]: 1.56 µg/mL (≈ 3.09 µM)
MIC [7, 30]: 12.5 µg/mL (≈ 24.7 µM)
MIC ([8]; Paecilomyces Ehrlich, Pepton-Nährlösung, pH 7,0, read-out: MIC-Werte): 0.78 µg/mL (≈ 1.54 µM)
MIC [9, 31]: 12.5 µg/mL (≈ 24.7 µM)
MIC [10, 30]: 0.78 µg/mL (≈ 1.54 µM)
MIC ([11]; Enterobacter aerogenes, Pepton-Nährlösung, pH 7,0, read-out: MIC-Werte): 12.5 µg/mL (≈ 24.7 µM)
MIC ([12]; ATCC11778, Bacillus cereus ATCC 11778, Pepton-Nährlösung, pH 7,0, read-out: MIC-Werte): 0.78 µg/mL (≈ 1.54 µM)
MIC ([13]; ATCC6633, Bacillus subtilis ATCC 6633, Pepton-Nährlösung, pH 7,0, read-out: MIC-Werte): 0.78 µg/mL (≈ 1.54 µM)
MIC [14, 32]: 3.13 µg/mL (≈ 6.19 µM)
MIC ([15]; ATCC12228, Staphylococcus epidermis ATCC 12228, Pepton-Nährlösung, pH 7,0, read-out: MIC-Werte): 0.78 µg/mL (≈ 1.54 µM)
MIC [16, 30]: 50 µg/mL (≈ 98.9 µM)
MIC [17, 33]: 3.13 µg/mL (≈ 6.19 µM)
Structure (SMILES): N=C(NCCCCCCNC(=N)NC(=N)Nc1ccc(Cl)cc1)NC(=N)Nc1ccc(Cl)cc1 [Chlorhexidin-diacetat]

Structure (SMILES): CCCCCCCCCCCCCCCC(=O)OCC[N+](C)(C)C [Palmitinsäurecholinesterchlorid]
MIC [6, 29]: 2.5 µg/mL
MIC [7, 30]: 100 µg/mL
MIC [9, 31]: > 400 µg/mL
MIC [10, 30]: 1.25 µg/mL
MIC [14, 32]: > 400 µg/mL
MIC [17, 33]: 100 µg/mL
MIC [22]: > 400 µg/mL

Structure (SMILES): CC(=O)OCC[N+](C)(C)C [Essigsäurecholinesterchlorid]
MIC [6, 26]: > 400 µg/mL
MIC ([7]; pH 7, read-out: MIC-Werte): > 400 µg/mL
MIC [9, 31]: > 400 µg/mL
MIC ([10]; pH 7, read-out: MIC-Werte): 100 µg/mL
MIC [14, 27]: > 400 µg/mL
MIC [17, 28]: > 400 µg/mL
MIC [22]: > 400 µg/mL

Abbauquote [24]: 13,8%
Structure (SMILES): CCCCCCCC(=O)OCC(O)CO (stereo not drawn) [Glycerinmonocaprylat]

Structure (SMILES): C[N+](C)(C)CCOC(=O)C12CC3CC(CC(C3)C1)C2 [Adamantylcarbonsäurecholinesterchlorid]
MIC [6, 29]: 200 µg/mL
MIC [7, 30]: > 400 µg/mL
MIC [9, 31]: > 400 µg/mL
MIC [10, 30]: 20 µg/mL
MIC [14, 32]: > 400 µg/mL
MIC [17, 33]: > 400 µg/mL
MIC [22]: > 400 µg/mL

Structure (SMILES): CCCCCC(=O)OCC[N+](C)(C)C [Capronsäurecholinesterchlorid]
MIC [6, 29]: > 400 µg/mL
MIC [7, 30]: > 400 µg/mL
MIC [9, 31]: > 400 µg/mL
MIC [10, 30]: 100 µg/mL
MIC [14, 32]: > 400 µg/mL
MIC [17, 33]: > 400 µg/mL
MIC [22]: > 400 µg/mL
